The values that follow come from ChEMBL document CHEMBL1649078, “Novel antiviral C5-substituted pyrimidine acyclic nucleoside phosphonates selected as human thymidylate kinase substrates” (J Med Chem, 2011).

The source made the active and inactive calls. No rule for the calls is given here.

The species entered for data set [1] is Homo sapiens. In words: Displacement of MABA-CDP from human recombinant UCK by fluorescence competition assay.
Data set [2] is filed under the species Homo sapiens. Put plainly: Activity at human recombinant UCK by Michaelis-Menten equation analysis.
The test system of data set [3] is Human alphaherpesvirus 3. In words: Antiviral activity against VZV OKA expressing thymidine kinase infected in human HEL cells assessed as reduction of virus-induced cytopathogenicity after 5 days. The note with it: Human alphaherpesvirus 3, OKA, 120 h. The data set is classed as functional, organism-based.
The subject of data set [4] is Human alphaherpesvirus 3. Put plainly: Antiviral activity against thymidine kinase-deficient VZV 07/1 infected in human HEL cells assessed as reduction of virus-induced cytopathogenicity after 5 days. Type of data set: functional, organism-based. The following applies: Human alphaherpesvirus 3, 07/1, HEL, 120 h.
The test system of another data set is Human betaherpesvirus 5. Put plainly: Antiviral activity against HCMV AD169/Davis infected in human HEL cells assessed as reduction of virus-induced cytopathogenicity after 7 days. The data set is classed as functional, organism-based. The following applies: Human betaherpesvirus 5, AD169/Davis, 168 h.
In data set [5] the test system is Human alphaherpesvirus 1. Put plainly: Antiviral activity against acyclovir-resistant thymidine kinase deficient HSV1 KOS infected in human HEL cells assessed as reduction of virus-induced cytopathogenicity after 7 days. The data set is classed as functional, organism-based. The note with it: Human alphaherpesvirus 1, KOS, 168 h.
The next data set relates to Human alphaherpesvirus 2. Put plainly: Antiviral activity against HSV2 G infected in human HEL cells assessed as reduction of virus-induced cytopathogenicity after 7 days. Type of data set: functional, organism-based. The note with it: Human alphaherpesvirus 2, strain G, 168 h.
Data set [6] can be described thus: Cytotoxicity against human HEL cells after 3 days. The data set is classed as cell-based.
In data set [7] the test system is Human alphaherpesvirus 1. In words: Antiviral activity against HSV1 KOS infected in human HEL cells assessed as reduction of virus-induced cytopathogenicity after 7 days. Type of data set: functional, organism-based. The following applies: Human alphaherpesvirus 1, KOS, 168 h.

For the compound `CCOP(=O)(CC/C=C/Cn1cc(Cl)c(=O)[nH]c1=O)OCC`, the outcome in the data set filed under Homo sapiens [1] and in the data set filed under Homo sapiens [2] was inactive.

With `CCOP(=O)(CC/C=C/Cn1cc(Cl)c(=O)n(C(=O)c2ccccc2)c1=O)OCC`, the outcome in the data set filed under Homo sapiens [1] and in the data set listed under Homo sapiens [2] was inactive.

With `COP(=O)(C/C=C\Cn1cc(C)c(=O)n(C(=O)c2ccccc2)c1=O)OC`, the result in the data set filed under Homo sapiens [1] and in the data set filed under Homo sapiens [2] was inactive.

With `Cc1cn(C/C=C/CP(=O)(OCOC(=O)C(C)(C)C)OCOC(=O)C(C)(C)C)c(=O)[nH]c1=O`, the EC50 in the data set on Human alphaherpesvirus 3 [3] was 0.41 µM; in the data set with Human alphaherpesvirus 3 [4], 0.19 µM; in the data set with Human betaherpesvirus 5, more than 40 µM; in the data set with Human alphaherpesvirus 1 [5], 9.2 µM; in the data set with Human alphaherpesvirus 2, 6.1 µM; in the data set on Human alphaherpesvirus 1 [7] it was 3.1 µM. In addition, the result in the data set listed under Homo sapiens [1] and in the data set listed under Homo sapiens [2] was inactive. For the same compound, half-maximal cytotoxicity in data set [6] (CC50 at 72 h) was put at 35 µM. In [6], this compound came in with an MCC at 72 h not below 200 µM.

Consider `Nc1nc2c(ncn2COC(CO)CO)c(=O)[nH]1` [GANCICLOVIR], for which the concentration for a half-maximal effect (EC50) with Human betaherpesvirus 5 worked out at 5.2 µM; with Human alphaherpesvirus 1 [5] it was 3 µM; in the data set on Human alphaherpesvirus 2, 0.05 µM; with Human alphaherpesvirus 1 [7], 0.08 µM. In data set [6], this compound registered a CC50 at 72 h of 164 µM. The same compound came in with an MCC at 72 h in data set [6] of more than 100 µM.

In the case of `COP(=O)(C/C=C/Cn1cc(F)c(=O)n(C(=O)c2ccccc2)c1=O)OC`, the outcome in the data set filed under Homo sapiens [1] and in the data set filed under Homo sapiens [2] was inactive.

Turning to `COP(=O)(C/C=C/Cn1cc(Br)c(=O)[nH]c1=O)OC`, the outcome in the data set listed under Homo sapiens [1] and in the data set filed under Homo sapiens [2] was inactive.

In the case of `COP(=O)(C/C=C\Cn1cc(Br)c(=O)[nH]c1=O)OC`, the outcome in the data set listed under Homo sapiens [1] and in the data set filed under Homo sapiens [2] was inactive.

For the compound `COP(=O)(C/C=C\Cn1cc(C)c(=O)[nH]c1=O)OC`, the outcome in the data set filed under Homo sapiens [1] and in the data set filed under Homo sapiens [2] was inactive.

With `CCOP(=O)(CC/C=C/Cn1cc(C)c(=O)n(C(=O)c2ccccc2)c1=O)OCC`, the result in the data set filed under Homo sapiens [1] and in the data set filed under Homo sapiens [2] was inactive.

Take `COP(=O)(C/C=C/Cn1ccc(=O)n(C(=O)c2ccccc2)c1=O)OC`: the outcome in the data set filed under Homo sapiens [1] and in the data set filed under Homo sapiens [2] was inactive.

Regarding `COP(=O)(C/C=C\Cn1ccc(=O)[nH]c1=O)OC`, the outcome in the data set listed under Homo sapiens [1] and in the data set listed under Homo sapiens [2] was inactive.

Consider `O=c1ccn(C/C=C/P(=O)(O)O)c(=O)[nH]1`, for which the outcome in the data set listed under Homo sapiens [1] and in the data set listed under Homo sapiens [2] was inactive.

As for `COP(=O)(C/C=C\Cn1cc(Cl)c(=O)[nH]c1=O)OC`, the outcome in the data set listed under Homo sapiens [1] and in the data set filed under Homo sapiens [2] was inactive.

In the case of `CCOP(=O)(/C=C/Cn1cc(Cl)c(=O)[nH]c1=O)OCC`, the result in the data set filed under Homo sapiens [1] and in the data set filed under Homo sapiens [2] was inactive.

Turning to `COP(=O)(C/C=C/Cn1cc(Br)c(=O)n(C(=O)c2ccccc2)c1=O)OC`, the result in the data set filed under Homo sapiens [1] and in the data set filed under Homo sapiens [2] was inactive.

In the case of `COP(=O)(C/C=C/Cn1ccc(=O)[nH]c1=O)OC`, the outcome in the data set filed under Homo sapiens [1] and in the data set filed under Homo sapiens [2] was inactive.

Take `O=c1[nH]c(=O)n(C/C=C/CCP(=O)(O)O)cc1Cl`: the outcome in the data set filed under Homo sapiens [1] and in the data set filed under Homo sapiens [2] was inactive.

For `O=c1ccn(C/C=C/CP(=O)(O)O)c(=O)[nH]1`, the outcome in the data set listed under Homo sapiens [1] and in the data set filed under Homo sapiens [2] was inactive.

Turning to `CCOP(=O)(/C=C/Cn1cc(F)c(=O)[nH]c1=O)OCC`, the outcome in the data set filed under Homo sapiens [1] and in the data set filed under Homo sapiens [2] was inactive.

`CCOP(=O)(CC/C=C/Cn1cc(Br)c(=O)[nH]c1=O)OCC`: the result in the data set filed under Homo sapiens [1] and in the data set listed under Homo sapiens [2] was inactive.

As to `Cc1cn(C/C=C\CP(=O)(OCOC(=O)C(C)(C)C)OCOC(=O)C(C)(C)C)c(=O)[nH]c1=O`, the EC50 with Human alphaherpesvirus 3 [3] is more than 40 µM; in the data set with Human alphaherpesvirus 3 [4], more than 40 µM; in the data set with Human betaherpesvirus 5, more than 200 µM; with Human alphaherpesvirus 1 [5] it was more than 40 µM; in the data set with Human alphaherpesvirus 2, more than 40 µM; with Human alphaherpesvirus 1 [7], more than 40 µM. For the same compound, the result in the data set listed under Homo sapiens [1] and in the data set listed under Homo sapiens [2] was inactive. The compound further yielded a cytotoxic concentration (CC50) at 72 h in [6] of 35 µM. For the same compound, the MCC at 72 h in [6] was not below 200 µM.

Take `CCOP(=O)(CC/C=C/Cn1cc(F)c(=O)n(C(=O)c2ccccc2)c1=O)OCC`: the outcome in the data set listed under Homo sapiens [1] and in the data set filed under Homo sapiens [2] was inactive.

Turning to `O=c1[nH]c(=O)n(C/C=C/P(=O)(O)O)cc1F`, the outcome in the data set filed under Homo sapiens [1] and in the data set listed under Homo sapiens [2] was inactive.

Take `O=c1[nH]c(=O)n(C/C=C/CCP(=O)(O)O)cc1Br`: the outcome in the data set filed under Homo sapiens [1] and in the data set listed under Homo sapiens [2] was inactive.

Consider `CCOP(=O)(CC/C=C/Cn1cc(C)c(=O)[nH]c1=O)OCC`, for which the outcome in the data set filed under Homo sapiens [1] and in the data set listed under Homo sapiens [2] was inactive.

Turning to `CCOP(=O)(/C=C/Cn1ccc(=O)[nH]c1=O)OCC`, the result in the data set listed under Homo sapiens [1] and in the data set listed under Homo sapiens [2] was inactive.

In the case of `COP(=O)(C/C=C/Cn1cc(Cl)c(=O)[nH]c1=O)OC`, the result in the data set filed under Homo sapiens [1] and in the data set filed under Homo sapiens [2] was inactive.

With `CCOP(=O)(/C=C/Cn1cc(Br)c(=O)[nH]c1=O)OCC`, the outcome in the data set filed under Homo sapiens [1] and in the data set filed under Homo sapiens [2] was inactive.

Take `COP(=O)(C/C=C\Cn1ccc(=O)n(C(=O)c2ccccc2)c1=O)OC`: the result in the data set listed under Homo sapiens [1] and in the data set listed under Homo sapiens [2] was inactive.

For `COP(=O)(C/C=C/Cn1cc(C)c(=O)[nH]c1=O)OC`, the result in the data set listed under Homo sapiens [1] and in the data set listed under Homo sapiens [2] was inactive.

Take `COP(=O)(C/C=C/Cn1cc(F)c(=O)[nH]c1=O)OC`: the outcome in the data set filed under Homo sapiens [1] and in the data set listed under Homo sapiens [2] was inactive.

As to `O=c1[nH]c(=O)n(C/C=C/CP(=O)(O)O)cc1Br`, the result in the data set filed under Homo sapiens [1] and in the data set filed under Homo sapiens [2] was inactive.

For `Cc1cn(C/C=C/CCP(=O)(O)O)c(=O)[nH]c1=O`, the result in the data set filed under Homo sapiens [1] and in the data set listed under Homo sapiens [2] was inactive.

For the compound `COP(=O)(C/C=C\Cn1cc(Br)c(=O)n(C(=O)c2ccccc2)c1=O)OC`, the result in the data set filed under Homo sapiens [1] and in the data set listed under Homo sapiens [2] was inactive.

On to `CCOP(=O)(CC/C=C/Cn1cc(F)c(=O)[nH]c1=O)OCC`, for which the result in the data set filed under Homo sapiens [1] and in the data set filed under Homo sapiens [2] was inactive.

For `O=c1[nH]c(=O)n(C/C=C/P(=O)(O)O)cc1Br`, the outcome in the data set filed under Homo sapiens [1] and in the data set listed under Homo sapiens [2] was inactive.

For the compound `O=c1[nH]c(=O)n(C/C=C/CCP(=O)(O)O)cc1F`, the result in the data set listed under Homo sapiens [1] and in the data set listed under Homo sapiens [2] was inactive.

For the compound `Cc1cn(C/C=C/P(=O)(O)O)c(=O)[nH]c1=O`, the outcome in the data set filed under Homo sapiens [1] and in the data set filed under Homo sapiens [2] was inactive.

As for `CCOP(=O)(CC/C=C/Cn1ccc(=O)n(C(=O)c2ccccc2)c1=O)OCC`, the outcome in the data set listed under Homo sapiens [1] and in the data set listed under Homo sapiens [2] was inactive.

With `O=c1[nH]c(=O)n(C/C=C/CP(=O)(O)O)cc1F`, the result in the data set filed under Homo sapiens [1] and in the data set filed under Homo sapiens [2] was inactive.

Consider `COP(=O)(C/C=C\Cn1cc(Cl)c(=O)n(C(=O)c2ccccc2)c1=O)OC`, for which the outcome in the data set filed under Homo sapiens [1] and in the data set filed under Homo sapiens [2] was inactive.

With `O=c1[nH]c(=O)n([C@H]2C[C@H](O)[C@@H](CO)O2)cc1/C=C/Br` [BRIVUDINE], the EC50 is 0.012 µM in the data set on Human alphaherpesvirus 3 [3], more than 100 µM in the data set with Human alphaherpesvirus 3 [4], more than 250 µM in the data set with Human betaherpesvirus 5 and 30 µM in the data set on Human alphaherpesvirus 2. The half-maximal cytotoxic concentration (CC50) at 72 h in [6] was more than 250 µM. Besides, the MCC at 72 h in data set [6] is more than 250 µM.

As for `CCOP(=O)(CC/C=C/Cn1cc(Br)c(=O)n(C(=O)c2ccccc2)c1=O)OCC`, the outcome in the data set listed under Homo sapiens [1] and in the data set listed under Homo sapiens [2] was inactive.

For `COP(=O)(C/C=C\Cn1cc(F)c(=O)n(C(=O)c2ccccc2)c1=O)OC`, the outcome in the data set filed under Homo sapiens [1] and in the data set filed under Homo sapiens [2] was inactive.

As for `O=c1ccn(C/C=C/CCP(=O)(O)O)c(=O)[nH]1`, the outcome in the data set filed under Homo sapiens [1] and in the data set filed under Homo sapiens [2] was inactive.

As for `O=c1[nH]c(=O)n(C/C=C/P(=O)(O)O)cc1Cl`, the result in the data set listed under Homo sapiens [1] and in the data set listed under Homo sapiens [2] was inactive.

`CCOP(=O)(CC/C=C/Cn1ccc(=O)[nH]c1=O)OCC`: the outcome in the data set listed under Homo sapiens [1] and in the data set listed under Homo sapiens [2] was inactive.

In the case of `COP(=O)(C/C=C\Cn1cc(F)c(=O)[nH]c1=O)OC`, the result in the data set listed under Homo sapiens [1] and in the data set listed under Homo sapiens [2] was inactive.

As for `CCOP(=O)(/C=C/Cn1cc(C)c(=O)[nH]c1=O)OCC`, the result in the data set listed under Homo sapiens [1] and in the data set filed under Homo sapiens [2] was inactive.

In the case of `COP(=O)(C/C=C/Cn1cc(Cl)c(=O)n(C(=O)c2ccccc2)c1=O)OC`, the outcome in the data set listed under Homo sapiens [1] and in the data set filed under Homo sapiens [2] was inactive.

With `COP(=O)(C/C=C/Cn1cc(C)c(=O)n(C(=O)c2ccccc2)c1=O)OC`, the result in the data set filed under Homo sapiens [1] and in the data set listed under Homo sapiens [2] was inactive.
